Measured values reported in ChEMBL document CHEMBL1158056, “Antidepressant principles of the roots of Polygala tenuifolia” (J Nat Prod, 2006).

Biological target: Sodium-dependent noradrenaline transporter (Homo sapiens, UniProt P23975)
Assay: biochemical
Description: Displacement of [125I]RTI-55 from human NET expressed in MDCK cell membrane

Chain of Sodium-dependent noradrenaline transporter (P23975 whole entry): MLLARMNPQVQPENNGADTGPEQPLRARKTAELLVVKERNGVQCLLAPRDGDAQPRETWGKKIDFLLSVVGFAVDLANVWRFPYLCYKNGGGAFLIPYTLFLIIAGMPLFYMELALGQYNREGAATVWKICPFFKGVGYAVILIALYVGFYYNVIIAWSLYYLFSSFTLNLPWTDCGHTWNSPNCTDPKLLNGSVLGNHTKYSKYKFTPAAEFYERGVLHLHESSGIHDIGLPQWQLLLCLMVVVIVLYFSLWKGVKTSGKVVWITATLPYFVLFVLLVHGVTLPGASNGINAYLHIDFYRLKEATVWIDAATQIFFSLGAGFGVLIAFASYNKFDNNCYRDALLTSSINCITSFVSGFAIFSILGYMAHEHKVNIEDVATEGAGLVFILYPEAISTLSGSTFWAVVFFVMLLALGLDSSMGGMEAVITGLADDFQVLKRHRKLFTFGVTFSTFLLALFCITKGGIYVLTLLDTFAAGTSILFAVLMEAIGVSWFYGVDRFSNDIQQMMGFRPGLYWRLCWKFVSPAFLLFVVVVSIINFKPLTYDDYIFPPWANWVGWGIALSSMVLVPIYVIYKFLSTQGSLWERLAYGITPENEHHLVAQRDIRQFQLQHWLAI

Compound	IC50
OC[C@@H]1OC[C@@H](O[C@@H]2O[C@@H](CO)[C@@H](O)[C@@H](OCc3ccccc3)[C@@H]2O)[C@H](O)[C@H]1O [POLYGALATENOSIDE B]	6.04 µM
OC[C@@H]1OC[C@@H](O[C@@H]2O[C@@H](COCc3ccccc3)[C@@H](O)[C@@H](O)[C@@H]2O)[C@H](O)[C@H]1O [POLYGALATENOSIDE A]	30 µM
